Assay results from US5892029A, “3-hydroxy-2(1H)-pyridinone chelating agents” (priority 1997, dated 1999).
Entries after “also recorded” stand apart in the source; their conditions may differ. Read-outs that look alike come from different tables or passages of the source.

Tests used:
[1] = Fe(III) complex formation constants and pM; type: binding; conditions: pH 7.4; chelator 10 and metal ion 1 μM
Text: The new HOPO monomers display high affinity for ferric ions. For example, 1-methyl-4(1-propylcarbamoyl)-3-hydroxy-2(1H)-pyridinone (Formula 9C, backbone=n-propyl, R'=H, R1 =methyl) has overall complex binding constants on the order of 10^28.7 M-3 for Fe(III). However, because of the 3:1 stoichiometry of the bidentate monomer/Fe complex, its stability is strongly dependent on its concentration (by the 3rd power). Generally, the pM concept was used to define the concentration of unchelated metal ion at physiological pH (7.4), and at chelator and metal ion concentrations (10 and 1 μM, respectively) which are those expected in the plasma of a chelator-treated patient. […] Since the multidentate 3,2-HOPO ligands have higher pM values than their bidentate analogs, they have stronger scavenging power for iron and actinides in vivo. For example, the bidentate compound 1-methyl-4(1-propylcarbamoyl)-3-hydroxy-2(1H)-pyridinone has a pM of 19.26 for Fe(III), while the hexadentate compound TREN-Me-3,2-HOPO (Formula 12, m=1) has a pM of 26.69 for Fe(III).

[2] = Chemical and physical properties (solubility, pKa, pH, hygroscopicity); type: physicochemical
[3] = Promoting excretion of 238Pu(IV) in mice by orally administered ligands (Table 4); type: in vivo; conditions: 30 μmol/kg by gavage
Text: (§1) Animal studies were completed using methods detailed in Radiation Protection Dosimetry, 1994, 53, 305: P. W. Durbin et al., "In Vivo Chelation of Am(III), Pu(IV), Np(V) and U(VI) in Mice by TREN-(Me-3,2-HOPO)"; Radiation Protection Dosimetry, 1989, 17, 351: P. W. Durbin et al., "Removal of ^238 Pu(IV) from Mice by Polycatechoylate, -Hydroxamate or -Hydroxypyridinonate Ligands"; Radiation Research, 1984, 99, 85: P. W. Durbin et al., "Specific Sequestering Agents for the Actinides . . . "; Radiation Research, 1984, 99, 106: P. W. Durbin et al., "Removal of Pu and Am from Beagles and Mice . . . "; Radiation Research, 1980, 81, 170: R. D. Lloyd et al., and P. W. Durbin et al., "Specific Sequestering Agents for the Actinides . . . ". The foregoing articles are hereby incorporated by reference.
Radionuclides used in the animal studies came from a variety of sources. […]
The novel chelating agents of the present invention were tested for their effectiveness in promoting excretion of ^238 Pu(IV) by oral administration to mice as follows. […] The ^238 Pu(IV) in skeleton, soft tissues, and separated excreta was determined by counting the ^234 U L x-rays. […]

[4] = Promoting excretion of 241Am(III) in mice by injected ligands (Table 5); type: in vivo
Text: as §1
Radionuclides used in the animal studies came from a variety of sources. The ^238 Pu(IV) citrate and ^241 Am(III) citrate solutions were prepared for animal injection by 8- to 10-fold dilution with 0.14M NaC1 (pH 4) of concentrated stock solutions (0.08M sodium citrate buffer) that had been held in frozen storage at Lawrence Berkeley Laboratory (hereinafter LBL) for several years. [The ^238 Pu(IV) was originally obtained from D. R. Atherton at the University of Utah Radiobiology Laboratory, Salt Lake City. The ^241 Am(III) solution had been obtained many years earlier from the LBL Actinide Chemistry group.]
(§2) One of the novel chelating agents of the present invention, TREN-Me-3,2-HOPO, was also tested for effectiveness in promoting excretion of ^241 AM(III), ^237 Np(V), and ^232 U(VI) by injection into mice, as follows: Mice, in groups of five, each received an intravenous injection of (a) 1100 Bq of ^241 Am(III) in 0.2 mL of citrate buffer, (b) 150 Bq of ^232 UO2 Cl2 plus 3.6 mg of ^235 UO2 Cl2 in 0.2 mL of saline, or (c) 200 Bq of ^237 NpO2 Cl ([…] of ^237 NPO2 Cl) in 0.2 mL of saline. Three to five minutes later, 30 μmol/kg of TREN-Me-3,2-HOPO was injected intraperitoneally in 0.5 mL of saline. The mice were killed 24 hours after the actinide injection, frozen, and dissected after partial thawing. The skeleton, soft tissues, and separated excreta were radioanalyzed by counting the ^241 Am gamma rays, or the alpha particles emitted by ^237 Np or ^232 U (and its ingrowing daughters). Removal of those actinides from mice by injected TREN-Me-3,2-HOPO is summarized in Table 5, which also includes data for mice similarly treated with CaNa3 -DTPA and for actinide-injected controls. […] The structure of Am(III)-TREN-Me-3,2-HOPO is considered to resemble that of the Gd(III) complexes (see Example 20). Complexation of the fraction of Np(V) that is reduced in vivo to Np(IV) is considered to resemble that of Pu(IV). Complexation of U(VI) is considered to take place through binding to UO2^2+.
(§3) ^a Ligands (30 μmol/kg) i.p. at 3 to 5 min after actinide i.v.;

[5] = Promoting excretion of 237Np(V) in mice by injected ligands (Table 5); type: in vivo
Text: as §1
The ^237 Np(V) was obtained from J. Bucher of the LBL Actinide Chemistry group as NpO2 Cl in 0.1M HCl. It was diluted to the desired radioactivity concentration in 0.14M NaCl and the pH was adjusted to about 4.5 with NaOH just before use.
as §2, §3

[6] = Promoting excretion of U(VI) in mice by injected ligands (Table 5); type: in vivo
Text: as §1
The ^232 U was obtained from the Isotope Products Laboratory, Burbank, Calif., and ^234,235 U was obtained as U metal from long-held LBL storage. The two U sources were combined and dissolved in 6N HNO3, dried, and redissolved in 0.1N HCl. The daughter radioactivities were removed by elution from a Dowex-50X4 column (22 cm length, 0.7 cm diameter, 1.5 mL min^-1 flow rate) with 3.2N HCl. The U fractions (previously identified by a trial run with ^234,235 U alone) were combined, dried, and redissolved in 0.14M NaCl at pH 5.5.
as §2, §3

[7] = type: in vivo, mice; conditions: for body weight / plasma urea N: mean ± SD
Protocol: The test of acute toxicity of these novel ligands was carried out as follows. […] The ligand was dissolved in 0.5 to 1.0 ml of saline at pH 7 to 8. After a period of observation, the mice were killed, selected tissues were removed and fixed for histopathological examination,and unusual findings at autopsy were recorded.

[8] = 30 μmol/kg i.p. at 3 to 5 min after actinide i.v.
[9] = 30 μmol/kg i.p. at 3 to 5 min after actinide i.v., pooled
[10] = protocol I: 100 μmol/kg × 10 daily i.p., 11 d
[11] = protocol I: 100 μmol/kg × 10 daily i.p., 21 d
[12] = protocol II: 500 μmol/kg × 2 in 8 h i.p., 8 d

Structure (SMILES): CCCNC(=O)c1ccn(C)c(=O)c1O [3-hydroxy-1-methyl-4(1-propylcarbamoyl)-2(1H)-pyridinone]
- pM for Fe(III) [1]: 19.26
- solubility (in words) [2]: very soluble in water as well as organic solvents

Structure (SMILES): Cn1ccc(C(=O)NCCN(CCNC(=O)c2ccn(C)c(=O)c2O)CCNC(=O)c2ccn(C)c(=O)c2O)c(O)c1=O [TREN-Me-3,2-HOPO]
- effectiveness of Pu removal, oral (in words) [3]: the most effective both (by oral and injection) cases
- reduction of Am content (in words) ([4]; 30 μmol/kg i.p.): reduced the body content of all three actinides to a significantly greater degree than CaNa3 -DTPA; also recorded: the Am content of all tissues was greatly reduced
- Am(III) in liver at 24 h [4, 8]: 1.0 ± 0.6% of injected actinide
- Am(III) in skeleton at 24 h [4, 8]: 8.1 ± 6% of injected actinide
- Am(III) in soft tissue at 24 h [4, 8]: 1.6 ± 0.6% of injected actinide
- Am(III) in whole body at 24 h [4, 8]: 11 ± 1.4% of injected actinide
- Am(III) excreta: feces and GI contents [4, 9]: 8% of injected actinide
- Am(III) excreta: urine 0-24 h [4, 9]: 51% of injected actinide
- Am(III) in kidneys at 24 h [4, 9]: 0.2% of injected actinide
- reduction of Np content (in words) ([5]; 30 μmol/kg i.p.): reduced the body content of all three actinides to a significantly greater degree than CaNa3 -DTPA; also recorded: the Np content of the soft tissues was significantly reduced
- Np(V) in liver at 24 h [5, 8]: 3.8 ± 5.7% of injected actinide
- Np(V) in skeleton at 24 h [5, 8]: 34 ± 4.5% of injected actinide
- Np(V) in soft tissue at 24 h [5, 8]: 3.1 ± 1.1% of injected actinide
- Np(V) in whole body at 24 h [5, 8]: 42 ± 11% of injected actinide
- Np(V) excreta: feces and GI contents [5, 9]: 17% of injected actinide
- Np(V) excreta: urine 0-24 h [5, 9]: 40% of injected actinide
- Np(V) in kidneys at 24 h [5, 9]: 1.0% of injected actinide
- reduction of U content (in words) ([6]; 30 μmol/kg i.p.): reduced the body content of all three actinides to a significantly greater degree than CaNa3 -DTPA; also recorded: more than one-half of the U burden in the kidneys was removed
- U(VI) in kidneys at 24 h [6, 8]: 1.6 ± 0.3% of injected actinide
- U(VI) in liver at 24 h [6, 8]: 0.6 ± 0.3% of injected actinide
- U(VI) in skeleton at 24 h [6, 8]: 16 ± 2.4% of injected actinide
- U(VI) in soft tissue at 24 h [6, 8]: 1.6 ± 0.3% of injected actinide
- U(VI) in whole body at 24 h [6, 8]: 9.4 ± 6.0% of injected actinide
- U(VI) excreta: feces and GI contents [6, 9]: 2.3% of injected actinide
- U(VI) excreta: urine 0-24 h [6, 9]: 70% of injected actinide
- body weight [7, 10]: 102 ± 1 percent control
- plasma urea N [7, 10]: 112 ± 10 percent control
- no. of survivors ([7]; protocol I: 100 μmol/kg × 10 daily i.p., 11 d, of 5 mice): 5
- body weight [7, 11]: 106 ± 4 percent control
- plasma urea N [7, 11]: 120 ± 9 percent control
- no. of survivors ([7]; protocol I: 100 μmol/kg × 10 daily i.p., 21 d, of 5 mice): 5
- body weight [7, 12]: 101 ± 4 percent control
- plasma urea N [7, 12]: 119 ± 15 percent control
- no. of survivors ([7]; protocol II: 500 μmol/kg × 2 in 8 h i.p., 8 d, of 19 (TREN) or 10 (H(2,2)) mice): 19
- pM for Fe(III) [1]: 26.69
